# How the values were obtained:
# [1] = Antioxidant action, riboflavine chemiluminescence; assay type: biochemical; details: solvent water, phosphate buffer pH 9.1
# Excerpt: To assess a general antioxidant activity the method of riboflavine chemiluminescence was used. The test substance was introduced into a system consisted of phosphate buffer (pH 9.1), solution of riboflavine, and solution of bivalent iron sulfate. Chemiluminescence was initiated by 0.1% solution of hydrogen peroxide and registered by means of luminometer. […] Ascorbic acid was used as a reference agent.
# [2] = Analgesic activity, tail withdrawal from radiant heat; assay type: in vivo, mice
# Procedure: The time needed to draw back a tail placed under a directed source of radiant heat was estimated in a group of 3 mice. Prolongation of the response time by more than 50% after intraperitoneal dosing a substance (30 mg/kg) indicated analgesic activity. Morphine sulfate (2 mg/kg) was utilized as a reference agent.
# [3] = system: Mycobacterium tuberculosis H37RV; test: Antimicrobial action by serial dilution (MIC), M. tuberculosis; assay type: cell-based; details: Soton medium with 10% horse serum, 72-hour cultivation at 37° C.; for MIC: Mycobacterium tuberculosis
# [4] = system: Mycobacterium smegmatis ATCC607; test: Antimicrobial action by serial dilution (MIC), M. smegmatis; assay type: cell-based; details: for MIC: Mycolicibacterium smegmatis, ATCC607, M. smegmatis ATCC 607, medium N-1, 72-hour cultivation at 37° C.
# [5] = Determination of maximal tolerable dose; assay type: in vivo; details: oral administration, mice, observed 72 hours; 300 was the maximally utilized one
# Procedure: Tested substance was introduced perorally (in dose of 300 mg/kg) through a gastric tube or intraperitoneally (in dose of 100 mg/kg) to no-breed white mice with mass 18-20 g (each tested group consisted of 3 males and 3 females). Then the mouse state was observed during 72 hours. Absence of symptoms characteristic of toxic effects, or absence of animal death during the given time allows to make a conclusion that the toxicity of the test substance is low. If acute toxicity effects are observed, the dose is reduced to find maximal tolerable dose.
# [6] = system: primary culture of human lymphocytes (IFN-α production); test: Interferon-inducing activity in primary culture of human lymphocytes; assay type: cell-based
# Procedure: Interferon synthesis induction caused by the claimed compounds was conducted on a primary culture of human lymphocytes (it is these cells in a human organism that are the main producers of interferons). To obtain lymphocyte culture, fresh blood (within 12 hours after sampling) from healthy donors (not of group II) was used. To separate lymphocytes, heparinized blood obtained from healthy donor was centrifuged in a density gradient of ficoll-verografin of […] in order to extract a fraction of immunocompetent cells. This fraction was selected and diluted with the nutrient medium RPMI-1640, containing 5% of fetal calf serum, 0.3 mg/ml of L-glutamin, 100 un/ml of penicillin, and […] of streptomycin. The concentration of lymphocytes was considered after dying them with methylene blue and calculation of cell number in Goryaev chamber. Initial solutions of the claimed compounds were diluted with the nutrient medium RPMI-1640 so that the final concentrations of the compounds, which were obtained after introduction of lymphocyte suspension, constituted the raw: 100 μg/ml, 10 μg/ml, 1 μg/ml. The final concentration of lymphocytes in the induction mixture was 3×10^6 cell/ml.
# In parallels to the test samples the following controls were done: • 1). Control of spontaneous production of interferons (IFN) by lymphocytes. • 2). […] Control of spontaneous production of interferons in presence of DMSO taken in an amount corresponding to the test samples.
# Control and test samples were incubated for 24 hours at the temperature of 37° C. After incubation, the samples were centrifuged at 2,000 G to deposit cell elements, and IFN-containing supernatant was separate out of samples; then the supernatant was analyzed for the quantitative content of IFN. Cell deposition was resuspended in the previous volume of nutrient medium, coloured with vital dye trypan blue, and cell number was counted in the Goryaev chamber (as described above) to determine cytotoxic action of the compounds. The quantitative determination of content of IFN in control and test samples was conducted using the immunoenzyme test system Pro Con IF2 Plus, that is intended for determination of IFN-α, which is produced by TOO “Protein contour”. The solid-phase immunoenzyme method, utilizing horse radish peroxidase as an indicator enzyme, was used to determine the quantity of interferon in the samples. Activity of the bonded peroxidase was measured using an automatic photometer for microplates with a microprocessor at the wavelength of 450 nm.
# Based on the obtained results, a calibrating curve was formed, which allows to obtain data expressed in international units (IU) of activity, using the microprocessor of the automatic photometer. The results of the analysis are expressed in IU of activity of IFN per ml in the given induction system, which contains 3×10^4 lymphocyte/ml. Each test and control point was investigated in four parallels.
# Controls of immunoenzyme reaction: • 1. Control of DMSO with a nutrient medium. • 2. Control of system components (according to an instruction).
# The obtained data were undergone a statistical analysis using t-criterion, and calculation of the confident interval of probability at p=0.05 was carried out. Coincidence of results in the parallel tests was analyzed.
# [7] = Psychodepressive activity, behavioral score; assay type: in vivo, mice; details: per oral 300 mg/kg, one hour after dosing; total 60, less than 40 significant
# Procedure: Each parameter scores 2 points for an each mouse that had unchanged behavior. The total point sum was 60 (2×10×3 mice). Reducing score to less than 40 one hour after dosing with a substance per oral (300 mg/kg) denoted significant behavioral depression. Haloperidol was utilized as a reference agent.
# [8] = system: Human's platelet aggregation; test: Antiaggregational properties, ADP-induced platelet aggregation; assay type: cell-based; details: 100 μg/ml, ADP […], platelet-enriched human plasma
# Excerpt: Human's platelet aggregation was investigated in plasma of healthy 50±3 years donors that was enriched by thrombocytes, by means of aggregometer FRM-1. […] Magnitude of a maximum non-reversible platelet aggregation in the control samples (solvent) was adopted as 100%, and that in tested samples was counted as the percentage compared to the control.
# [9] = Hypoglycemic activity after glucose load; assay type: in vivo, mice; details: 100 mg/kg perorally, glucose 1000 mg/kg s.c.
# Procedure: Test substance (100 mg/kg) was perorally administrated to fasted mice, and, immediately after that, solution of glucose (1000 mg/kg) was administrated subcutaneously. Glucose content in blood was determined in a hour by the orthotoluidine method. Reducing of glucose level by more than 20% relative to control animals indicated hypoglycemic properties. Glibenclamide (I mg/kg) was utilized as a reference agent.
# [10] = Antiulcerous action, water immersion stress with immobilization; assay type: in vivo, rats; details: 20 mg/kg perorally
# Procedure: Antiulcerous activity of substances was tested on a model of experimental water immersion stress with immobilization. […] After that, gastric mucous membrane was investigated, number and sizes of ulcers were counted, ulceration index was determined (an average sum of ulcer lengths per one animal in a group).
# [11] = Hepatoprotective activity, CCl4 liver damage (AlAT); assay type: in vivo, rats; details: for AlAT: 20 mg/kg perorally 30 minutes before and 7 hours after CCl4, 24 hours, CCl4 control 0.83 ± 0.21, intact 0.27 ± 0.04; for % of reducing AlAT: 20 mg/kg perorally, relative to CCl4 control
# Procedure: CCl4 dissolved in 50% olive oil (1 ml/kg) was subcutaneously administrated to rats. Test substances were administrated perorally in a dose of 20 mg/kg 30 minutes before and 7 hours after the CCL4 administration. The activity of alanine-aminotranspherase (AlAT), which is a marker enzyme of liver parenchyma damage, was assessed twenty-four hours later. Reducing of enzyme amount by more than 30% relative to the control group was considered as evidence of hepatoprotective properties of the substance.
# Silymarin in a dose of 100 mg/kg was used as a reference agent.
# [12] = system: Herpes virus of the type I (HSV-I/Leningrad/248/88); test: Effect on Herpes virus, cytopathogenic action on Vero cells; assay type: cell-based, Herpes Simplex virus; details: compound 100 μg/ml
# Procedure: An antiviral activity was determined with respect to Herpes virus of the type I (HSV-I/Leningrad/248/88) by means of commonly accepted method. Viruses were grown on a continuous culture of Vero cells that have been received from the Bank of Cell Cultures of the Institute of Cytology of the Russian Academy of Science.
# A virus in a final concentration of […] and the claimed compounds dissolved in DMSO in final concentrations of 100, 10 and 1 mg/l were added to cells that were grown on the RPMI-1640 medium with 10% fetal calf serum and placed into wells of the 96-well plate. 5 separate wells were used for each of tested concentrations of an agent. The plate was incubated during 60 minutes at 38° C. in a CO2-incubator. After the incubation, the virus was removed and then a fresh medium containing claimed compounds in used concentrations was again introduced.
# Results were evaluated basing on presence of cytopathogenic action on the cells after 36 hours of incubation at 38° C. in the CO2-incubator.
# The next controls were used in the experiment: • 1. Control of cell culture (capability to grow properly) • 2. Control of the virus (evaluation of capability for reproduction) • 3. Control of an antiviral activity of an antiviral drug Acyclovir • 4. Control of compounds (toxicity of compounds) • 5. Control of a solvent (DMSO) for toxicity.
# To estimate a cytopathic action of the virus, a quantity of the unchanged cells was calculated in 100 visual fields formed by a special net of an eyepiece of the inverted microscope.
compound,measurement,setting,value
"O=C1O[C@H]([C@@H](O)CO)C(O)=C1O [Ascorbic acid, reference compound]","IC50, suppressing chemiluminescence by 50%",[1],2.39 µg/mL
"CN1CC[C@]23c4c5ccc(O)c4O[C@H]2[C@@H](O)C=C[C@H]3[C@H]1C5.O=S(=O)(O)O [Morphine, Morphine sulfate, reference compound]","Latent period of response, before dosing",[2]; before morphine sulfate 2 mg/kg,8.3
same,"Latent period of response, 30 minutes after dosing",[2]; morphine sulfate 2 mg/kg,14.6
CO[C@H]1/C=C/O[C@@]2(C)Oc3c(C)c(O)c4c(O)c(cc(O)c4c3C2=O)NC(=O)/C(C)=C\C=C\[C@H](C)[C@H](O)[C@@H](C)[C@@H](O)[C@@H](C)[C@H](OC(C)=O)[C@@H]1C [Rifamycin],MIC,[3],0.05 µg/mL
same,MIC,[4],0.25 µg/mL
CC1COc2c(N3CCN(C)CC3)c(F)cc3c(=O)c(C(=O)O)cn1c23 (stereo not shown) [Ofloxacin],MIC,[3],0.5 µg/mL
same,MIC,[4],0.5 µg/mL
NNC(=O)c1ccncc1 [Isoniazid],MIC,[3],0.1 µg/mL
same,MIC,[4],1.5 µg/mL
CC[C@@H](CO)NCCN[C@@H](CC)CO [Ethambutol],MIC,[3],5 µg/mL
same,MIC,[4],5 µg/mL
O=C1NC(=O)N(c2cccc(F)c2)C(=O)C1=NO [XXVI],"Maximal tolerable dose, concentration of test substances",[5],300 mg/kg
CN1C(=O)C(=NO)C(=O)N(C)C1=S [XL],"MIC, M. tuberculosis",[3],12.5 µg/mL
same,"MIC, M. smegmatis",[4],3.1 µg/mL
same,Content of IFN in induction mixture after 24-hour incubation,[6]; substance 1 mg/l,5.1 ± 1.0 IU/3 × 10^4 lymph./ml
same,Content of IFN in induction mixture after 24-hour incubation,[6]; substance 10 mg/l,11.3 ± 1.5 IU/3 × 10^4 lymph./ml
same,Content of IFN in induction mixture after 24-hour incubation,[6]; substance 100 mg/l,22.8 ± 1.0 IU/3 × 10^4 lymph./ml
"O=C(CCCN1CCC(O)(c2ccc(Cl)cc2)CC1)c1ccc(F)cc1 [Haloperidol, reference compound]",Point number (behavioral depression),[7],27
[H]/N=C(/N)N[C@H]1[C@H](O)[C@@H](O)[C@H](O[C@@H]2O[C@@H](C)[C@](O)(C=O)[C@H]2O[C@@H]2O[C@@H](CO)[C@H](O)[C@@H](O)[C@@H]2NC)[C@@H](N/C(N)=N\[H])[C@@H]1O [Streptomycin],MIC,[3],0.2 µg/mL
same,MIC,[4],0.15 µg/mL
O=C1NC(=O)N(C2CCCCC2)C(=O)C1=NO [VIII],% of inhibition of platelet aggregation,[8],68.9 ± 5.3%
same,% change of glucose relative to glucose control,[9],−18%
same,Glucose in blood,"[9]; after one hour, glucose control 8.26 ± 0.50",6.77 ± 0.61 mmol/L
same,% of animals with ulcers,"[10]; rats, 4 hours stress, control 100",100%
same,% of reducing number of ulcers,[10]; versus control,−64%
same,% of reducing ulceration index,[10]; versus control,−35%
same,Number of lesions,[10]; control 8.3 ± 2.5,3.0 ± 1.3
same,ulceration index,[10]; control 10.5 ± 5.7,6.8 ± 4.4
same,AlAT,[11],0.48 ± 0.19 mmol/L/h
same,% of reducing AlAT,[11],−42%
O=C1NC(=O)N(c2ccc(Br)cc2)C(=O)C1=NO [XXIX],"Maximal tolerable dose, concentration of test substances",[5],300 mg/kg
same,Quantity of the unchanged cells (number of cells in 100 visual fields),"[12]; Vero cells, 36 hours, cell control 10000",3000
same,percentage of protection of cells from virus,[12]; compared to the control of cell culture,(30%)
same,% of inhibition of platelet aggregation,[8],16.4 ± 3.1%
same,Point number (behavioral depression),[7],32
same,AlAT,[11],0.40 ± 0.04 mmol/L/h
same,% of reducing AlAT,[11],−52%

# Source: patent US7074925B1, “N-substituted derivatives of 5-oxyiminobarbituric acid” (priority 1998, dated 2006)
